Measurements published in paper PMC9855386, “Obtaining a Monoclonal Antibody against a Novel Prometryn-Like Hapten and Characterization of Its Selectivity for Triazine Herbicides” (Biosensors, 2022).

Test system: 7D4 mAb (mouse monoclonal anti-prometryn antibody)
Experiment: ic-ELISA cross-reactivity of the 7D4 mAb with triazines
Type: binding
Conditions: for IC50: ic-ELISA, analyte 1000-15.625 and 0 ng/mL; for Cross-Reactivity: relative to prometryn = 100%
Description: The ic-ELISA method was used to screen the best-performing fusion mouse sera. They were used to establish the standard curve of antibodies by detecting the supernatant of positive cells. The buffer required for ic-ELISA was the same as previously reported. The specific steps of the operation are as follows: (1) The coated antigen was added to the microplate by diluting it with the required coating solutions (CBS, pH 9.6, 0.05 mol/L). Each well contained 100 µL, which was incubated at 37 °C for three h before being washed three times with washing buffer (PBST, PBS containing 0.1% Tween-20). (2) With sample dilution buffer (PBSTG, PBST containing 0.1% gelatin), the standard prometryn sample and the antiserum/antibody from mice were diluted to the required concentration. The microplate was incubated for 30 min at 37 °C with 50 µL of diluted antiserum or antibody and standard samples of various concentrations. PBST was used three times to wash the dishes. (3) Then, 100 µL of PBSTG-diluent IgG HRP (labeled goat anti-mouse IgG with HRP) was added to each well. After 30 min at 37 °C, the plate was cleaned three times with PBST. (4) Each well was incubated for 15 min in the dark at 25 °C with 100 µL of TMB color developing solution. To stop the reaction, 50 µL of the hydrochloric acid solution was added to each well. The absorbance at OD450 nm was measured with a TECAN Infinite M200 PRO microplate reader from Männedorf, Switzerland.
The ic-ELISA method was used to determine the ideal antibody and antigen mix. The coating antigen and antibody concentration used in the experiment was 1 mg/mL. The dilution multiples of the coating were 1 × 10^3, 2 × 10^3, 4 × 10^3, and 8 × 10^3. The prometryn standard was 1000 ng/mL. The best concentration combination of antigen and antibody was selected to establish the standard curve of the antibody. Prometryn standards were diluted to 1000, 500, 250, 125, 62.5, 31.25, 15.625, 7.8125, 3.90625, and 0 ng/mL, with PBSTG for subsequent ic-ELISA experiments. The standard curve was determined by ic-ELISA. […] Each measured OD value in the curve is the average of three independent repeats. The 7D4 mAb’s inhibition rate was well linearly correlated with the prometryn concentration. […] The 7D4 mAb type was identified as IgG1 using a mouse antibody isotyping kit from Sigma®, St. Louis, MO, USA.
Eleven triazine herbicides were selected to determine their cross-reactivity with 7D4 mAb. […] The cross-reaction rate with the other seven triazines was less than 1%. The hybridoma cell line 7D4 screened in this study can specifically recognize prometryn. […] The cross-reaction rate may vary depending on the immunoassay format and the competitive hapten preparation used.

SMILES	IC50 [µg/mL]	Cross-Reactivity [%]	Cross-Reactivity (listed as terbumeton) [%]	Cross-Reactivity (listed as ametryn) [%]	Cross-Reactivity (listed as desmetryn) [%]
CCNc1nc(Cl)nc(NC(C)C)n1 [Atrazine]	>1	<0.39			
CCNc1nc(NCC)nc(SC)n1 [Simetryn]	>1	<0.39			
CCNc1nc(Cl)nc(NCC)n1 [Simazine]	>1	<0.39			
CCNc1nc(NC(C)(C)C)nc(OC)n1 [Terbumeton]	0.051091	7.64	7.64		
CCNc1nc(NC(C)C)nc(SC)n1 [Ametryn]	0.011221	34.77		34.77	
CNc1nc(NC(C)C)nc(SC)n1 [Desmetryn]	0.021566	18.09			18.09
CCNc1nc(Cl)nc(NC(C)(C)C)n1 [Terbuthylazine]	>1	<0.39			
COc1nc(NC(C)C)nc(NC(C)C)n1 [Prometon]	>1	<0.39			
CC(C)Nc1nc(Cl)nc(NC(C)C)n1 [Propazine]	0.398011	0.98			
CCNc1nc(NC(C)(C)C)nc(SC)n1 [Terbutryn]	>1	<0.39			
